Test results as given in US4960790A, “Derivatives of taxol, pharmaceutical compositions thereof and methods for the preparation thereof” (University of Kansas, priority 1989, dated 1990).

Legend:
microtubules = details: in vitro / cells, in words; cited from earlier work
[1] = in words; cited from earlier work
[2] = test system: human mammary carcinoma MX-1 xenograft; experiment: Subrenal capsule human mammary carcinoma MX-1 xenograft in mice; details: for ANML BODY WT DIFF (test minus control) / TEST BODY WT CHG / # OF ANMLS ALIVE CALC/TOTAL / Average tumor WEIGHT CHANGE (DELTA) / Average tumor weight, FINAL: Q4D; for ANML BODY WT DIFF (test minus control) / TEST BODY WT CHG: Day 1 to 11; for # OF ANMLS ALIVE CALC/TOTAL / Average tumor WEIGHT CHANGE (DELTA) / Average tumor weight, FINAL / % T/C: Day 11; for % T/C: Q4D Days 1, 5, 9
Source text: The procedures followed are those described at pages 23-24 of NIH Publication No. 84-2635, In Vivo Cancer Model (February 1984).
In the procedure, test groups of mice (6 mice per test group) and control groups of 12 mice per group are utilized. A tumor fragment (human mammary carcinoma MX-1 xenograft), is implanted under the membranous covering of the kidney of each mouse.
Day 0: Anesthetize animals. Record body weight (Weigh Day 1). Implant tumor, measure and record. Randomize animals after they recover from the anesthetic. Run bacterial cultures. Determine solubilities of test agent. Record deaths daily.
Day 1: Check cultures. Discard experiment if contaminated. Prepare test materials. Initiate test agent injections (in the nape of the neck) based on individual body weight. Treatment is Q4D on Days 1, 5, and 9. Prepare test agent fresh on each injection day and administer based on individual body weight for that day.
Days 5 and 9: Prepare test agent fresh on each injection day and administer based on individual body weight for that day.
Day 11: End and evaluate experiment. Record body weights (Weigh Day 2). Measure tumor in OMU's (Ocular Micrometer Unit--10 OMU's=1 mm) and record.
The parameter measured is mean tumor weight change (delta) based on length and width measurements in millimeters. Mean animal body weights are computed for Day 1 and Day 11, compute T/C for all test groups with>65% survivors on Day 11. An excessive body weight change difference (test minus control) may also be used in evaluating toxicity. The dimensions are measured and recorded in Ocular Micrometer Units (OMU). A computer is utilized for the following:
(1) Converts OMU's to millimeters (mm).
(2) Calculates tumor weights (mgs) from tumor dimensions (mm×mm) following the formula for the volume of a prolate ellipsoid: [formula] (3) Calculates the change (delta) in mean tumor weight for each group of mice:
Change in Mean Tumor Weight=Mean Tumor WeightFINAL -Mean Tumor WeightINITIAL.
(4) Calculates the change (delta) in mean tumor weight for test (T) and control (C) groups.
(5) Calculates T/C% for all test groups with>65% survivors on Final Evaluation Day: [formula]

B-16 melanoma cells = experiment: In vitro B16 melanoma cell proliferation; format: cell-based; details: rank order
Method: These studies were conducted according to standard procedures as described in Donoso and Himes, Cancer Biochem. Biophysics, vol. 7, (1984), p. 133.

tumors = details: in words; cited from earlier work
microtubule assembly = experiment: In vitro microtubule assembly kinetics; format: biochemical; details: rank order
Method: (A) In vitro Microtubule Assembly Kinetics Studies
The microtubule assembly study was conducted using both 2' and 7-derivatives according to the in vitro procedures disclosed, for example, in Mellado et al., Biochemical and Biophysical Research Communications, Vol. 124, No. 2 (1984), pp. 329-336; Magri et al., J. Org. Chem., 51, 797-802 (1986); and Parness et al., Biochemical and Biophysical Research Communications, Vol. 105, No. 3, pp. 1082-1091 (1982).

SMILES: CC(=O)O[C@H]1C(=O)[C@@]2(C)[C@H]([C@H](OC(=O)c3ccccc3)[C@]3(O)C[C@H](OC(=O)[C@H](O)[C@@H](NC(=O)c4ccccc4)c4ccccc4)C(C)=C1C3(C)C)[C@]1(OC(C)=O)CO[C@@H]1C[C@@H]2O [Taxol]
- Effect on microtubules (microtubules): promotes the assembly of microtubules but inhibits their disassembly
- Water solubility [1]: only very slightly soluble in water
- ANML BODY WT DIFF (test minus control) ([2]; Table 1, 4.45 mg/kg): .5
- TEST BODY WT CHG ([2]; Table 1, 4.45 mg/kg): -1.2
- # OF ANMLS ALIVE CALC/TOTAL ([2]; Table 1, 4.45 mg/kg): 5/5
- Average tumor WEIGHT CHANGE (DELTA) ([2]; Table 1, 4.45 mg/kg): -.79 MGS
- Average tumor weight, FINAL ([2]; Table 1, 4.45 mg/kg): .00 MGS
- ANML BODY WT DIFF (test minus control) ([2]; Table 1, 6.67 mg/kg): .2
- TEST BODY WT CHG ([2]; Table 1, 6.67 mg/kg): -1.5
- # OF ANMLS ALIVE CALC/TOTAL ([2]; Table 1, 6.67 mg/kg): 5/5
- Average tumor WEIGHT CHANGE (DELTA) ([2]; Table 1, 6.67 mg/kg): -.74 MGS
- Average tumor weight, FINAL ([2]; Table 1, 6.67 mg/kg): .00 MGS
- % T/C ([2]; Table 1, 10.00 mg/kg): -84%
- ANML BODY WT DIFF (test minus control) ([2]; Table 1, 10.00 mg/kg): -.3
- TEST BODY WT CHG ([2]; Table 1, 10.00 mg/kg): -2.0
- # OF ANMLS ALIVE CALC/TOTAL ([2]; Table 1, 10.00 mg/kg): 6/6
- Average tumor WEIGHT CHANGE (DELTA) ([2]; Table 1, 10.00 mg/kg): -.49 MGS
- Average tumor weight, FINAL ([2]; Table 1, 10.00 mg/kg): .09 MGS
- ANML BODY WT DIFF (test minus control) ([2]; Table 1, 15.00 mg/kg): -2.5
- TEST BODY WT CHG ([2]; Table 1, 15.00 mg/kg): -4.2
- # OF ANMLS ALIVE CALC/TOTAL ([2]; Table 1, 15.00 mg/kg): 6/6
- Average tumor WEIGHT CHANGE (DELTA) ([2]; Table 1, 15.00 mg/kg): -.81 MGS
- Average tumor weight, FINAL ([2]; Table 1, 15.00 mg/kg): .00 MGS
- % T/C ([2]; Table 1, 22.40 mg/kg): TOX
- ANML BODY WT DIFF (test minus control) ([2]; Table 1, 22.40 mg/kg): -.9
- TEST BODY WT CHG ([2]; Table 1, 22.40 mg/kg): -2.6
- # OF ANMLS ALIVE CALC/TOTAL ([2]; Table 1, 22.40 mg/kg): 3/6
- Average tumor weight, FINAL ([2]; Table 1, 22.40 mg/kg): .00 MGS
- % T/C ([2]; Table 2, 1.88 mg/kg): 5%
- ANML BODY WT DIFF (test minus control) ([2]; Table 2, 1.88 mg/kg): 3.0
- TEST BODY WT CHG ([2]; Table 2, 1.88 mg/kg): -1.0
- # OF ANMLS ALIVE CALC/TOTAL ([2]; Table 2, 1.88 mg/kg): 4/5
- Average tumor WEIGHT CHANGE (DELTA) ([2]; Table 2, 1.88 mg/kg): .71 MGS
- Average tumor weight, FINAL ([2]; Table 2, 1.88 mg/kg): 1.51 MGS
- ANML BODY WT DIFF (test minus control) ([2]; Table 2, 3.75 mg/kg): 1.1
- TEST BODY WT CHG ([2]; Table 2, 3.75 mg/kg): -2.9
- # OF ANMLS ALIVE CALC/TOTAL ([2]; Table 2, 3.75 mg/kg): 4/5
- Average tumor WEIGHT CHANGE (DELTA) ([2]; Table 2, 3.75 mg/kg): -.71 MGS
- Average tumor weight, FINAL ([2]; Table 2, 3.75 mg/kg): .00 MGS
- % T/C ([2]; Table 2, 7.50 mg/kg): TOX
- ANML BODY WT DIFF (test minus control) ([2]; Table 2, 7.50 mg/kg): 2.3
- TEST BODY WT CHG ([2]; Table 2, 7.50 mg/kg): -1.7
- # OF ANMLS ALIVE CALC/TOTAL ([2]; Table 2, 7.50 mg/kg): 3/5
- Average tumor weight, FINAL ([2]; Table 2, 7.50 mg/kg): .00 MGS
- % T/C ([2]; Table 2, 15.00 mg/kg): TOX
- # OF ANMLS ALIVE CALC/TOTAL ([2]; Table 2, 15.00 mg/kg): 0/5
- Order of effectiveness in B-16 melanoma cell proliferation study (B-16 melanoma cells): taxol>2'-(N,N-dimethylglycyl)taxol>2'-(N,N-diethylaminopropionyl)taxol>7-(N,N-dimethylglycyl)taxol
- Antitumor activity (tumors): potent antitumor activity against a wide variety of tumors
- Ability to assemble microtubules (order) (microtubule assembly): taxol >7-(N,N-dimethylglycyl)taxol(11)>2'(N,N-diethylaminopropionyl)taxol(8)>2'(N,N-dimethylglycyl)taxol(2)
